The text below walks through data of patent US8962666B2, “Method for improving cartilage repair and/or preventing cartilage degeneration in a joint” (Maastricht University, priority 2009, dated 2015).

Data set [1] can be described thus: Parecoxib concentration in synovial joint fluid after Bio-Gel injection in Hoffa's fat pad (HPLC). Format: in vivo, Wistar rats. The conditions noted are these: 0.1 ml Bio-Gel containing 500 μg Parecoxib in Hoffa's fat pad. On the procedure: After induction of general anaesthesia, both knees of Wistar rats were shaved and prepared for aseptic surgery. The centre of the patella tendon was identified. A 28 G needle with a 1 ml syringe was used to penetrate the centre patella tendon. Directly after the patella tendon is penetrated and 0.1 ml of the Bio-Gel containing 500 μg of Parecoxib was injected in Hoffa's fad pad. Directly after injection, 1 day, 5 days, 10 days and 30 days after injection the rats were sacrificed.
The concentration of parecoxib in the SJF was examined using a high-performance liquid chromatography

The test system of data set [2] is cartilage only defect on medial femoral condyles. Briefly: Goat cartilage defect repair (MACI / microfracture) with Bio-Gel containing Parecoxib in Hoffa's fatpad. The conditions noted are these: controlled release from Hoffa's fatpad; summary statement. Type of data set: in vivo, Dutch milk goats. The procedure: Surgical procedure: Skeletally mature Dutch milk goats were used for this study. During the first operation, both knee joints of the goats were opened using a medial parapatellar incision. Using a 8 mm in diameter dermal punch a cartilage only defect was created on both medial femoral condyles. The cartilage of both sides was minced and after an overnight collagenase treatment, cells were isolated and expanded in monolayer. […] Consequently these cells were seeded and allowed to attach in a collagen carrier for 24 hrs as described earlier as Matrix-supported Autologous Chondrocyte Implantation (MACI). Hereafter a second operation was performed. The knee joints were opened and one the cartilage defect of one knee joint was repaired using the MACI method. The defect in the other knee joint was repaired using microfracturing as described by […] et al. In 10 goats Hoffa's fatpad was injected (as described earlier) with a Bio-Gel containing 1.5 mg of Parecoxib, in 10 goats Hoffa's fatpad was injected (as described earlier) with a Bio-Gel only, and in 10 goats no injection was performed. Goats were allowed full-weight bearing after both surgical procedures. Histological evaluation: 3 months after the second operation, goats were sacrificed. […] Mankin scores for OA grading and O'Driscoll scores for cartilage repair were scored by 2 blinded individuals.

The test system of data set [3] is anterior cruciate ligament-transected (ACLT) knees. The following applies: cited from earlier work.
[4] abbreviates: intra-articular parecoxib injection.

With `CCC(=O)NS(=O)(=O)c1ccc(-c2c(-c3ccccc3)noc2C)cc1` [Parecoxib], the “intra-articular level of parecoxib” value in data set [1] (after 30 days follow) is “remained stable”. Further, the “time of maximum parecoxib level in the SJF” value in data set [1] (time after injection) turned out to be 1 days. Besides, the “cartilage repair using MACI and microfracturing” value in data set [2] was “significantly improved”. The cartilage degeneration result in data set [3] (ACLT knees, intra-articular injection) is recorded as “significant inhibition”. Moreover, in data set [3] (intra-articular parecoxib alone, naive rats), the “effect on cartilage and synovium of normal knees” value is recorded as “did not have any effect”. Also, in data set [3] (setting [4]), the “glutamate and aspartate levels” value is reported as “reduced”; the synovial inflammation result is given as “suppressed”.
